Laboratory results as given in PMC10034409 (Frontiers in Pharmacology, 2023).
Entries after “also recorded” stand apart in the source; their conditions may differ.

Experiments:
[1] = target: T1, AChE (Homo sapiens, UniProt P22303); experiment: biochemical; assay type: biochemical; settings: for AChE IC50 / IC50: mean ± SEM of 3 experiments; for Ki: mean ± SEM, mean of four values from Lineweaver-Burk plot, its secondary re-plots and Dixon plot
T1 construct: purchased Sigma Aldrich (Steinheim, Germany)
T1 sequence (P22303 32-614): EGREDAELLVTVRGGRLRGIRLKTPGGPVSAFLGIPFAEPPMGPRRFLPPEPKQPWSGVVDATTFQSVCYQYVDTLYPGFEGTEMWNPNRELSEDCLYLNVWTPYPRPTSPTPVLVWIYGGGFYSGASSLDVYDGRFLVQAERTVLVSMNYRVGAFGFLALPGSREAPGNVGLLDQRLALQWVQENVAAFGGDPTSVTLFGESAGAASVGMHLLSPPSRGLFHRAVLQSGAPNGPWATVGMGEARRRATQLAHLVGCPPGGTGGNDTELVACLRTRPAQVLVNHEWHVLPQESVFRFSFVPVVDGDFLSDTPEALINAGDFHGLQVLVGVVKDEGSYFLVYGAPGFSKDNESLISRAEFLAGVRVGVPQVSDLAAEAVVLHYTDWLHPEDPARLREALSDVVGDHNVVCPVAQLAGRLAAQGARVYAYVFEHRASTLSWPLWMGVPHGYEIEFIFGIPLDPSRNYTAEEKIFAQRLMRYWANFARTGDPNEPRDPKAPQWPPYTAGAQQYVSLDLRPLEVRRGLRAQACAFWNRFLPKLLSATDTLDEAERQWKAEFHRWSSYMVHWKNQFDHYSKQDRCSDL
Procedure: (§1) The test compounds were prepared fresh immediately before each experiment. Test compounds were added to 150 µl […] phosphate buffer (pH 8.0), 200 µl methanol, and 20 µl of the test enzymes and were incubated at 25°C for 15 min. A sample with an equal amount of solvent (ethanol) in place of the test compounds served as a negative control. 10 μl of DTNB reagent was added to the samples, and the reaction was initiated by adding 10 μl acetylthiocholine (ATCh) or butyrylthiocholine (BTCh) for the estimation of AChE and BChE, respectively. All the experiments were conducted in triplicate. […] The rate of enzyme inhibition was calculated as the change in optical density per minute (OD/min).
(§2) The enzyme inhibition activities of serially diluted concentrations of test compounds were measured, and the IC50 values were calculated using EZ-Fit Enzyme Kinetics Program.
(§3) The dissociation constant (Ki) values, which signified the dissociation of the enzyme-inhibitor complex into free enzyme and inhibitor, were also determined. […] These velocities were obtained over a range of substrate concentrations between 0.1 and 0.4 mM for ATCh and 0.05 and 0.2 mM for BTCh. The assay conditions for measurement of the residual activities of all inhibitors were identical to the aforementioned spectrophotometric assay procedure, except that the fixed concentrations of inhibiting compounds were used in the assay medium. Assays were conducted in triplicate at each concentration of the inhibitor.
(§4) The inhibition patterns of tested coumarins were determined by the graphical views of Dixon plots, Lineweaver-Burk plots, and their secondary re-plots. […] The linear regression analysis values, correlation coefficient, slope, intercept, and standard errors were obtained using the same software. Two different methods were applied to monitor the effects of the test sample on both Michaelis constant (K m ) and maximum velocity (V max) values. […] The secondary re-plots of the Lineweaver-Burk were also constructed in two ways; firstly, the reciprocal of apparent V max (1/V maxapp ) values were determined at each intersection point for every inhibitor concentration line on the y-axis of the Lineweaver-Burk plot and then re-plotted against different concentrations of the respective inhibitor. […] The secondary re-plot of the Dixon plot was constructed as the slope of each line of substrate concentration in the original Dixon plot against the reciprocals of substrate concentrations.

[2] = target: T2, BChE (Homo sapiens, UniProt P06276); experiment: biochemical; assay type: biochemical; settings: for Ki: mean ± SEM, mean of four values from Lineweaver-Burk plot, its secondary re-plots and Dixon plot
T2 construct: purchased Sigma Aldrich (Steinheim, Germany)
T2 sequence (P06276 29-602): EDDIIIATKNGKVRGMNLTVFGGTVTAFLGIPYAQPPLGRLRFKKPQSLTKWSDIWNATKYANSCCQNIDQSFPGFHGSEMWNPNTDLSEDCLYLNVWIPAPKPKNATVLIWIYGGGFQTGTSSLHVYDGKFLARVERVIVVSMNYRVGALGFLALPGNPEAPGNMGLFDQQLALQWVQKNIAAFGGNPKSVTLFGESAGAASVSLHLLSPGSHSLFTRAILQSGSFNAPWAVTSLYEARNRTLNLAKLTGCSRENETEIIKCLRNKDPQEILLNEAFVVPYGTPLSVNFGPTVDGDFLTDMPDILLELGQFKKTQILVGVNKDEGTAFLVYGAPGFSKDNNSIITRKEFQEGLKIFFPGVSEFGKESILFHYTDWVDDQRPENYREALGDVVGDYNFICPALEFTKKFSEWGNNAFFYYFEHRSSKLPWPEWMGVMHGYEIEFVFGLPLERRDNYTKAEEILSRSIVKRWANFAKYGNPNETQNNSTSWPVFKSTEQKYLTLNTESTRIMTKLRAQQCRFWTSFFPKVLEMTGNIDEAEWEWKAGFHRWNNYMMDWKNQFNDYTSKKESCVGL
Procedure: as §1, §2, §3, §4

Compound	AChE IC50 [1]	AChE IC50 ([1]; listed as 2′-O-ethylmurrangatin (1))	BChE IC50 ([2]; mean ± SEM of 3 experiments)	IC50 ([2]; mean ± SEM of 3 experiments) [µM]	Type of inhibition of AChE (in words) [1]	IC50 [1] [µM]	Ki [1] [µM]	AChE Type of inhibition ([1]; table abbreviations)	Type of inhibition of BChE (in words) [2]	Ki [2] [µM]	BChE Type of inhibition ([2]; table abbreviations)
C=C(C)[C@@H](OCC)[C@@H](O)c1c(OC)ccc2ccc(=O)oc12 [2′-O-Ethylmurrangatin (1), 2′-O-ethylmurrangatin]	No activity upto 1 mM	not active at 1 mM conc; also recorded: did not show any inhibition	very weak activity	843 ± 13							
COc1ccc2ccc(=O)oc2c1C(O)C(=O)C(C)C (centres unmarked) [Murranganone (2), murranganone]				74.3 ± 0.75	pure non-competitive inhibition	79.1 ± 2.02	50 ± 0.58	NC ^d	mixed-type inhibition	22 ± 0.44	LM ^e
COc1ccc2ccc(=O)oc2c1C(OC(=O)CC(C)C)C(=O)C(C)C (centres unmarked) [Paniculatin (3), paniculatin]					mixed-type inhibitor	31.6 ± 0.03	43 ± 0.65		mixed-type inhibitor	22 ± 0.6	
